Assay results as given in ChEMBL document CHEMBL1134133, “Neutral inhibitors of the serine protease factor Xa” (Bioorg Med Chem Lett, 2001).

Legend:
[1] = target: Coagulation factor X (Homo sapiens) (UniProt P00742); assay: In vitro inhibition of human coagulation factor X.
[2] = target: Serine protease 1 (Homo sapiens) (UniProt P07477); assay: Inhibitory activity against trypsin at pH 8.2
[3] = target: Urokinase-type plasminogen activator (Homo sapiens) (UniProt P00749); assay: Inhibitory activity against urokinase-type plasminogen activator (microPa) at pH 8.2
[4] = target: Plasminogen (Homo sapiens) (UniProt P00747); assay: Inhibitory activity against plasmin at pH 8.2
[5] = target: Vitamin K-dependent protein C (Homo sapiens) (UniProt P04070); assay: Inhibitory activity against Activated protein C at pH 8.2
[6] = target: Coagulation factor X (Homo sapiens) (UniProt P00742); assay: Inhibitory activity against serine protease Coagulation factor X at pH 8.2
[7] = target: Tissue-type plasminogen activator (Homo sapiens) (UniProt P00750); assay: Inhibitory activity against tissue plasminogen activator (tissue plasminogen activator) at pH 8.2
[8] = target: Prothrombin (Homo sapiens) (UniProt P00734); assay: Inhibitory activity against thrombin at pH 8.2
[9] = target: Coagulation factor X (Homo sapiens) (UniProt P00742); assay: Inhibitory activity against serine protease Coagulation factor X at pH 7.4
[10] = target: T1, Coagulation factor VII (Homo sapiens) (UniProt P08709); assay: Inhibitory activity against Coagulation factor VII at pH 8.2
T1 sequence (whole entry): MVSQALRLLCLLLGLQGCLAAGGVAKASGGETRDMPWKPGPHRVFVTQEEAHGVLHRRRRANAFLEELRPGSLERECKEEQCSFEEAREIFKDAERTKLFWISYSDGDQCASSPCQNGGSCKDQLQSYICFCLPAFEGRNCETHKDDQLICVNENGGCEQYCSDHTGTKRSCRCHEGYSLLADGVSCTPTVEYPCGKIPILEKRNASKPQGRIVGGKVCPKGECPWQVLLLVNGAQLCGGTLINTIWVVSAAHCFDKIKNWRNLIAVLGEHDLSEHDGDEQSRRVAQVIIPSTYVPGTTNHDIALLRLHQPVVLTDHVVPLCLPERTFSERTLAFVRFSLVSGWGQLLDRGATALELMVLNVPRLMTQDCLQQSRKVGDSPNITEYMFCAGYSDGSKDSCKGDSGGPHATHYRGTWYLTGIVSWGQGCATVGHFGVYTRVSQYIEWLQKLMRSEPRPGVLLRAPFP

Coagulation factor X (Homo sapiens), sequence (P00742 41-179 limits assumed): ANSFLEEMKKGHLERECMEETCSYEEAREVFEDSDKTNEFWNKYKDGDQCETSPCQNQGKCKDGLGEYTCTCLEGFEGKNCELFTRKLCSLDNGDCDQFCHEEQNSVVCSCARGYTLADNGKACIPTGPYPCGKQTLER
Coagulation factor X (Homo sapiens), sequence (P00742 235-488 limits assumed): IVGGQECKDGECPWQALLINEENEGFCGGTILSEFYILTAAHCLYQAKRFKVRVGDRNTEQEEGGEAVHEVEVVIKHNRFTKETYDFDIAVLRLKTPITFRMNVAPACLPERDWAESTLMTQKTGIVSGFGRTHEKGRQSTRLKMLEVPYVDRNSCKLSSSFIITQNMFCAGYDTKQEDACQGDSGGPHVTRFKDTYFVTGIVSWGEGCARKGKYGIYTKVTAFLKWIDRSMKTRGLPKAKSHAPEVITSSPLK
Vitamin K-dependent protein C (Homo sapiens), sequence (P04070 43-197 limits assumed): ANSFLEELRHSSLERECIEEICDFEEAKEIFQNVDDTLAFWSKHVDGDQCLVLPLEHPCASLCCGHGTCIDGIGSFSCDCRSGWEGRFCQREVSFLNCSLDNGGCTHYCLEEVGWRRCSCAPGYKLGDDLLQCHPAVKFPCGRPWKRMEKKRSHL
Vitamin K-dependent protein C (Homo sapiens), sequence (P04070 212-461 limits assumed): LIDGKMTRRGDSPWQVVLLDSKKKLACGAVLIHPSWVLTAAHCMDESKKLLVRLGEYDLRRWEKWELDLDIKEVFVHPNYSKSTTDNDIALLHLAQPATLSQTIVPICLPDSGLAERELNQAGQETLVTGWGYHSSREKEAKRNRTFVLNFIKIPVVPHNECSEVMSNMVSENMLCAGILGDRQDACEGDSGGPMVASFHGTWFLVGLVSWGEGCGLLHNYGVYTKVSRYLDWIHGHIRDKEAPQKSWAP
Tissue-type plasminogen activator (Homo sapiens), sequence (P00750 36-562 limits assumed): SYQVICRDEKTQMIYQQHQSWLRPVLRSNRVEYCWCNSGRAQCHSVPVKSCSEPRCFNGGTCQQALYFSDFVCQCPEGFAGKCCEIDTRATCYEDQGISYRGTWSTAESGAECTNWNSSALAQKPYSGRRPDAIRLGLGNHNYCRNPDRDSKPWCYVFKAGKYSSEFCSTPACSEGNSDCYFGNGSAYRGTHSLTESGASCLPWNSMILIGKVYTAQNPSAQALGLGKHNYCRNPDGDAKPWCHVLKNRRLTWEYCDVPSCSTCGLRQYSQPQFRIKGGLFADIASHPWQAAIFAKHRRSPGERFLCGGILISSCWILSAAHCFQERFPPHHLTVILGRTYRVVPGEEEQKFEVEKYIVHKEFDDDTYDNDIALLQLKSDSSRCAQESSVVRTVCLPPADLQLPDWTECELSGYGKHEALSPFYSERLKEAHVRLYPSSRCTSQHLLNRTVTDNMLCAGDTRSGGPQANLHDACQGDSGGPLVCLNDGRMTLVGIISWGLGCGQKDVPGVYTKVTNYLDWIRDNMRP
Plasminogen (Homo sapiens), sequence (P00747 whole entry, looked up): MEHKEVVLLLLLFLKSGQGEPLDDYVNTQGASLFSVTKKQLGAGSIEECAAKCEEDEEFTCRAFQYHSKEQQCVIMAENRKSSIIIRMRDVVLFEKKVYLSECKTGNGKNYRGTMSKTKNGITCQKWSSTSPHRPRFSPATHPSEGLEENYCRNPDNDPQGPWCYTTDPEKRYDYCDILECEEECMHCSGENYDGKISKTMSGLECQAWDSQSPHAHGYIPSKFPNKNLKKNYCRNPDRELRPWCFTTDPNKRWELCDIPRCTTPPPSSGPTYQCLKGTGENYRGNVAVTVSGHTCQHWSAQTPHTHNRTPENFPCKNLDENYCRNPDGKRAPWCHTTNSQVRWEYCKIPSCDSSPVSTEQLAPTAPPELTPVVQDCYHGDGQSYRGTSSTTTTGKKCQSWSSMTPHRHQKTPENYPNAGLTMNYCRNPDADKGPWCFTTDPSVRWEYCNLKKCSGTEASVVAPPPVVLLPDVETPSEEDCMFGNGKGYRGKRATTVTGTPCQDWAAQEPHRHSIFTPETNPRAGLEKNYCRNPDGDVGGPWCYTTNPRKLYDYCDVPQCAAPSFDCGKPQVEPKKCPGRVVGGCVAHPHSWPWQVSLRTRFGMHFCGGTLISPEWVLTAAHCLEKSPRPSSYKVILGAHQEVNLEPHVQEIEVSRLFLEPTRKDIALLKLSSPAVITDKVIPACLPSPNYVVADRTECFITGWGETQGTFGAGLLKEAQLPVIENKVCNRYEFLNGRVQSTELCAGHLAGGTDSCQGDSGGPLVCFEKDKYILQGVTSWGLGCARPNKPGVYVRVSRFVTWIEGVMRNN
Serine protease 1 (Homo sapiens), sequence (P07477 whole entry): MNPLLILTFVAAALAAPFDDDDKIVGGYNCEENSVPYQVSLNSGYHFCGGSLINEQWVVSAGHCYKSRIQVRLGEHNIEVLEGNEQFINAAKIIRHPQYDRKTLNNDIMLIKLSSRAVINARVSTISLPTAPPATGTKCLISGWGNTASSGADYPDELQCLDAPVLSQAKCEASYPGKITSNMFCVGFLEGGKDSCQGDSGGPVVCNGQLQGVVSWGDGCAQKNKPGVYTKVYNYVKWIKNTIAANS

| Compound | Ki' [1] | other results |
| --- | --- | --- |
| O=C(Nc1ccccn1)c1ccccc1NC(=O)c1sc2ccccc2c1Cl | 7.8 µM | – |
| Cc1ccc(NC(=O)c2sc3ccccc3c2Cl)c(C(=O)Nc2ccc(N(C)C)cc2)c1 | > 1200 µM | – |
| Cc1ccc(NC(=O)c2cc3cc(O)ccc3s2)c(C(=O)Nc2ccc(F)cc2)c1 | 3.5 µM | – |
| Cc1ccc(NC(=O)c2sc3ccccc3c2Cl)c(C(=O)Nc2ccncc2)c1 | 22.1 µM | – |
| Cc1ccc(NC(=O)c2sc3ccccc3c2Cl)c(C(=O)Nc2ccc(N3CCOCC3)cc2)c1 | 436 µM | – |
| O=C(Nc1ccc(F)cc1)c1ccccc1NC(=O)c1sc2ccccc2c1Cl | 3.1 µM | – |
| Cc1ccc(NC(=O)c2sc3ccccc3c2Cl)c(C(=O)Nc2ccc(F)cc2)c1 | 0.57 µM | Ki' [2]: > 150 µM; Ki' [3]: > 150 µM; Ki' [4]: > 150 µM; Ki' [5]: > 150 µM; Ki' [6]: 2.1 µM; Ki' [7]: > 150 µM; Ki' [8]: 125 µM; Ki' [9]: 0.042 µM; Ki' [10]: > 900 µM |
| Cc1ccc(NC(=O)c2sc3ccccc3c2Cl)c(C(=O)Nc2ccc(Cl)cc2)c1 | 0.21 µM | – |
| Cc1ccc(NC(=O)c2sc3ccccc3c2Cl)c(C(=O)Nc2ccccc2Cl)c1 | > 1200 µM | – |
| Cc1ccc(NC(=O)c2sc3ccccc3c2Cl)c(C(=O)N2CCNCC2)c1 | > 1200 µM | – |
| Cc1ccc(NC(=O)c2sc3ccccc3c2Cl)c(C(=O)Nc2ccc(O)cc2)c1 | 97 µM | – |
| Cc1ccc(NC(=O)c2cc3ccc(O)cc3s2)c(C(=O)Nc2ccc(F)cc2)c1 | 10 µM | – |
| COc1ccc(NC(=O)c2cc(C)ccc2NC(=O)c2sc3ccccc3c2Cl)cc1 | 2.1 µM | – |
| O=C(O)c1cccc(NC(=O)c2ccccc2NC(=O)c2sc3ccccc3c2Cl)c1 | > 150 µM | – |
| Cc1ccc(NC(=O)c2sc3ccccc3c2Cl)c(C(=O)Nc2ccc3c(c2)OCO3)c1 | 17.7 µM | – |
| O=C(O)c1ccc(NC(=O)c2ccccc2NC(=O)c2sc3ccccc3c2Cl)cc1 | > 150 µM | – |
| O=C(Nc1ccccc1C(=O)N1CCOCC1)c1sc2ccccc2c1Cl | > 150 µM | – |
